Measured values reported in patent publication US11484561B2, “Morus extracts rich in N-acids of imino sugars and or pipecolic acids” (Phynova Limited, priority 2011, dated 2022).
Structures can show the parent of a compound that is named as a salt.

Assays:
Type in all cases: biochemical
[1] = test system: N-acetyl-β-D-gluc (Bovine kidney); experiment: Glycosidase assay, N-acetyl-β-D-gluc (Bovine kidney)
Procedure: (§1) The assays used p-nitrophenyl-substrates and commercial enzymes purchased from Sigma-Aldrich. Enzymes were assayed at 27° C. in 0.1M citric acid/0.2M disodium hydrogen phosphate buffers at the optimum pH for the enzyme. The incubation mixture consisted of 10 μl enzyme solution, 10 μl of 10 mg/ml aqueous solution of extract and 50 μl of the appropriate 5 mM p-nitrophenyl substrate made up in buffer at the optimum pH for the enzyme. The reactions were stopped by addition of 70 μl 0.4M glycine (pH 10.4) during the exponential phase of the reaction, which had been determined at the beginning using uninhibited assays in which water replaced mulberry fractions. Final absorbances were read at 405 nm using a Versamax microplate reader (Molecular Devices). Assays were carried out in triplicate, and the values given are means of the three replicates per assay. Results are expressed as % inhibition.
(§2) Substrates are 10 mM p-nitrophenyl-glycopyranosides. Enzymes are purchased from Sigma and run at the pH optima

[2] = target: T1, β-glucuronidase (bovine liver) (Bos taurus, UniProt A3KMY8); experiment: Glycosidase assay, β-glucuronidase (bovine liver); settings: Table 6; % inhibition; concentration not given (method: 10 mg/ml solution)
T1 construct: purchased Sigma-Aldrich; host or cells: bovine liver
T1 sequence (A3KMY8 1-652): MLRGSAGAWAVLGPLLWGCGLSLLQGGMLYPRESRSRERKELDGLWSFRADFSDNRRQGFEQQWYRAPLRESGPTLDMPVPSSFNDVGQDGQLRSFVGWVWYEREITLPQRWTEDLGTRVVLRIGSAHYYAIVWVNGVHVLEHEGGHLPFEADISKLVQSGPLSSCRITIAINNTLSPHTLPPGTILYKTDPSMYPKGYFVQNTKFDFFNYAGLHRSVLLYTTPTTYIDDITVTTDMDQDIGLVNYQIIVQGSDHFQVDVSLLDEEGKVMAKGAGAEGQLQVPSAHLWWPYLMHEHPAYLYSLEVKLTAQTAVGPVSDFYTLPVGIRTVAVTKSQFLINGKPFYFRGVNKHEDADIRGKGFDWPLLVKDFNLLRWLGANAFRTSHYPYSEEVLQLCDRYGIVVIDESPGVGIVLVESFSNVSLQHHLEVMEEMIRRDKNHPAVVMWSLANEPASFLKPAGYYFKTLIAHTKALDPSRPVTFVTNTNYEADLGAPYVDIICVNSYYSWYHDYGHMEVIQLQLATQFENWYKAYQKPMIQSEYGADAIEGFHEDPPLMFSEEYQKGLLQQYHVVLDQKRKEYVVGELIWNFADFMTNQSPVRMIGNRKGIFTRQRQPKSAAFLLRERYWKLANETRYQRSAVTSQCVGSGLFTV
Procedure: as §1, §2

[3] = target: T2, amyloglucosidase (A. niger) (Aspergillus niger, UniProt P69328); experiment: Glycosidase assay, amyloglucosidase (A. niger); settings: % inhibition; for amyloglucosidase A. niger: Table 6, concentration not given (method: 10 mg/ml solution)
T2 construct: purchased Sigma-Aldrich
T2 sequence (P69328 25-640): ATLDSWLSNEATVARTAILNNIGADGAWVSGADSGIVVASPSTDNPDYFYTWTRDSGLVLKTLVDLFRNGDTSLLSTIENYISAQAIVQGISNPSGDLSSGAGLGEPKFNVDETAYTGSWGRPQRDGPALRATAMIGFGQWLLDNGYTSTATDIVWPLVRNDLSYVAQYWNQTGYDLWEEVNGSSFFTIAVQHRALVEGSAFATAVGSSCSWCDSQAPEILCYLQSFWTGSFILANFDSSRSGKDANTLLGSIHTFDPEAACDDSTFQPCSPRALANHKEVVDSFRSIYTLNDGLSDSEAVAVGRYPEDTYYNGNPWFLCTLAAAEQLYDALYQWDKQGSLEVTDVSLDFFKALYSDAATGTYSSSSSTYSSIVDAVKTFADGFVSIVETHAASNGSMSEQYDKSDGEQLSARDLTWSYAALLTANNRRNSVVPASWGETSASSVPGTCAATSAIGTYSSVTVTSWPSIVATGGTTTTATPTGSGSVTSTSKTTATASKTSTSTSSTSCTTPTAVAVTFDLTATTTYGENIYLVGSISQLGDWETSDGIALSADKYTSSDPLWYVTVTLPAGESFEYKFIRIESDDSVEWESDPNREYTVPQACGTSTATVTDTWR
Procedure: as §1, §2

[4] = target: T3, β-D-galactosidase (bovine) (Bos taurus, UniProt Q58D55); experiment: Glycosidase assay, β-D-galactosidase (bovine)
T3 construct: purchased Sigma-Aldrich
T3 sequence (Q58D55 28-653): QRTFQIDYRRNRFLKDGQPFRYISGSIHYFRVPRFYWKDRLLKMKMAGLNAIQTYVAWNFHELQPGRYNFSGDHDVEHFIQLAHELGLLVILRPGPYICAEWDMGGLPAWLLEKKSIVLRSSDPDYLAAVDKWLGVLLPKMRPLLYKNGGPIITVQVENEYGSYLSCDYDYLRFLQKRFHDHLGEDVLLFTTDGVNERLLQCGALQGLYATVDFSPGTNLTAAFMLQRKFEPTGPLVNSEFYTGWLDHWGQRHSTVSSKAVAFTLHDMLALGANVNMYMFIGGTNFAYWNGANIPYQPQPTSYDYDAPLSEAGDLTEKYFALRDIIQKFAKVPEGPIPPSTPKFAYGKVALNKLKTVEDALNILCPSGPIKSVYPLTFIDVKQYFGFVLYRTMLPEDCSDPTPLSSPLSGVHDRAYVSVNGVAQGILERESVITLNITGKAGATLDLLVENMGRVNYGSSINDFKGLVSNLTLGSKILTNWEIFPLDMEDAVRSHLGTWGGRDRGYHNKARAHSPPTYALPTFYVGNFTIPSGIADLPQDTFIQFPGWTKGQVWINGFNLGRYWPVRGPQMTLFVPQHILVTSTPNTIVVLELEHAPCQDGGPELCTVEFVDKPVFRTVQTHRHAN
Procedure: as §1, §2

[5] = target: T4, α-D-mannosidase (Jack bean) (Canavalia ensiformis, UniProt C0HJB3); experiment: Glycosidase assay, α-D-mannosidase (Jack bean); settings: % inhibition
T4 construct: purchased Sigma-Aldrich
T4 sequence (C0HJB3 1-562 limits assumed): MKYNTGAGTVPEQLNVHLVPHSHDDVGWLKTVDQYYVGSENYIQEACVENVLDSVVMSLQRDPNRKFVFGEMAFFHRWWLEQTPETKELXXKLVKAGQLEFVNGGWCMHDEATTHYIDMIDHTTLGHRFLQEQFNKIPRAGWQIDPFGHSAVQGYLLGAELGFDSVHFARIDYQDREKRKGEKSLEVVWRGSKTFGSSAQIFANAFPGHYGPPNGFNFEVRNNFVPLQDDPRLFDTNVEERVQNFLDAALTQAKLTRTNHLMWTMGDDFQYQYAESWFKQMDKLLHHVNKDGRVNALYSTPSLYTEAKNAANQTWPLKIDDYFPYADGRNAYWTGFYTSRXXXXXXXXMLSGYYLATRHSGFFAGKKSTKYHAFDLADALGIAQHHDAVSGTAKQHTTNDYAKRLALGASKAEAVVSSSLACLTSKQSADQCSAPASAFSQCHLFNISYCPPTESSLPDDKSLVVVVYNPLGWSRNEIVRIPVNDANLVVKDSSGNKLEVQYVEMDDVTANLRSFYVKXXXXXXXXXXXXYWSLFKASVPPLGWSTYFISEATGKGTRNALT
Procedure: as §1, with “The reactions were stopped by addition of 70 μl 0.4M glycine (pH 10.4) during the exponential phase of the reaction, which had been determined at the beginning using uninhibited assays in which water replaced mulberry fractions.” left out
as §2

α-D-glucosidase (rice) = target: T5, α-D-glucosidase (rice) (Oryza sativa subsp. japonica, UniProt Q653V7); experiment: Glycosidase assay, α-D-glucosidase (rice)
T5 construct: purchased Sigma-Aldrich
T5 sequence (Q653V7 34-885): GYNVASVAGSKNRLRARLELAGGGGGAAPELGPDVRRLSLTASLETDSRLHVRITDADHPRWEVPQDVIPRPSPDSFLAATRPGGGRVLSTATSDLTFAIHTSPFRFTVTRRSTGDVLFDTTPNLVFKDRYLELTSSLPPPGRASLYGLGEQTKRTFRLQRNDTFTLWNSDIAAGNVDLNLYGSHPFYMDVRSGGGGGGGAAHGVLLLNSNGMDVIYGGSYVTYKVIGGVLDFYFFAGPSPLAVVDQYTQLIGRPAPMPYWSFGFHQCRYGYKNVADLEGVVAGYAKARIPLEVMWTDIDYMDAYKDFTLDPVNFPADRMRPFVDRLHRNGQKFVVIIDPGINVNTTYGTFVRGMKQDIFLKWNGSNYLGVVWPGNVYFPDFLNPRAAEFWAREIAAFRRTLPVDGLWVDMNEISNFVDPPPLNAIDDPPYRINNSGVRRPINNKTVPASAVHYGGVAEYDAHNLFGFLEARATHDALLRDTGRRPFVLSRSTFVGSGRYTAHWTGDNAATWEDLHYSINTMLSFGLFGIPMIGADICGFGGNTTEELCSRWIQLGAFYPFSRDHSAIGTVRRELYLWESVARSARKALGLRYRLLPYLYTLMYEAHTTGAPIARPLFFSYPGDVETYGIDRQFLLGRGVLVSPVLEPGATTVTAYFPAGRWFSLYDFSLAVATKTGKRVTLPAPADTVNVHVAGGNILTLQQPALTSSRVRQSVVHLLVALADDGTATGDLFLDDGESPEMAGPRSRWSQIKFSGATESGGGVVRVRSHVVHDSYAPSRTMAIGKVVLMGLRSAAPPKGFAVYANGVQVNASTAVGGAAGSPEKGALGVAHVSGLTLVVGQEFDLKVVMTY
Procedure: as §1, §2

[6] = test system: α-D-glucosidase (Bacillus); experiment: Glycosidase assay, α-D-glucosidase (Bacillus)
Procedure: as §1, §2

α-D-glucosidase (Yeast) = target: T6, α-D-glucosidase (Yeast) (Saccharomyces cerevisiae, UniProt P53341); experiment: Glycosidase assay, α-D-glucosidase (Yeast)
T6 construct: purchased Sigma-Aldrich
T6 sequence (P53341 whole entry): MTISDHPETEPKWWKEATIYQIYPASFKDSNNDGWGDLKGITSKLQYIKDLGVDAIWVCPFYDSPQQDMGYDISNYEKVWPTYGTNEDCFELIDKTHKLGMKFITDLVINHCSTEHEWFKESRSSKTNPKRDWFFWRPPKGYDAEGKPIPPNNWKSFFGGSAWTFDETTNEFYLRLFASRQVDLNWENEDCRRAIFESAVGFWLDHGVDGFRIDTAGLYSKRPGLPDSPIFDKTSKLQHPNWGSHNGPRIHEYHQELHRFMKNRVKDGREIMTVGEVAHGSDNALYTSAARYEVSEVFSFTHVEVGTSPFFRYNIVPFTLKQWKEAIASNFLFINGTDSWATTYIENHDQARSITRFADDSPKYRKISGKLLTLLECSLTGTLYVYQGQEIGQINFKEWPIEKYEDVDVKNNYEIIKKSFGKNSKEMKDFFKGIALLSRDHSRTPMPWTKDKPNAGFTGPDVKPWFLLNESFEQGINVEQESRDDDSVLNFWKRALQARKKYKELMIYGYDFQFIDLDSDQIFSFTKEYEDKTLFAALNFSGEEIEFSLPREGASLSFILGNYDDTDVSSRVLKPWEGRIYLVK
Procedure: as §1, §2

[7] = test system: β-D-mannosidase Cellulomonas fimi; experiment: Glycosidase assay, β-D-mannosidase (Cellulomonas fimi); settings: % inhibition; for β-D-mannosidase Cellulomonas fimi: Table 6, concentration not given (method: 10 mg/ml solution)
Procedure: as §1

β-D-glucosidase (almond) = experiment: Glycosidase assay, β-D-glucosidase (almond)
Procedure: as §1, §2

glycogen phosphorylase = experiment: Glycogen phosphorylase assay; settings: for GP Inhibition (%): at 400 μM; for glycogen phosphorylase inhibition: words, no concentration
[8] = test system: N-acetyl-β-D-gluc (Jack bean); experiment: Glycosidase assay, N-acetyl-β-D-gluc (Jack bean)
Procedure: as §1, §2

[9] = test system: naringinase (P. decumbens); experiment: Glycosidase assay, naringinase (P. decumbens); settings: % inhibition
Procedure: as §1, §2

[10] = target: T7, α-D-galactosidase (green coffee bean) (Coffea arabica, UniProt Q42656); experiment: Glycosidase assay, α-D-galactosidase (green coffee bean); settings: % inhibition; for α-D-galactosidase coffee bean: Table 6, concentration not given (method: 10 mg/ml solution)
T7 construct: purchased Sigma-Aldrich
T7 sequence (Q42656 16-378): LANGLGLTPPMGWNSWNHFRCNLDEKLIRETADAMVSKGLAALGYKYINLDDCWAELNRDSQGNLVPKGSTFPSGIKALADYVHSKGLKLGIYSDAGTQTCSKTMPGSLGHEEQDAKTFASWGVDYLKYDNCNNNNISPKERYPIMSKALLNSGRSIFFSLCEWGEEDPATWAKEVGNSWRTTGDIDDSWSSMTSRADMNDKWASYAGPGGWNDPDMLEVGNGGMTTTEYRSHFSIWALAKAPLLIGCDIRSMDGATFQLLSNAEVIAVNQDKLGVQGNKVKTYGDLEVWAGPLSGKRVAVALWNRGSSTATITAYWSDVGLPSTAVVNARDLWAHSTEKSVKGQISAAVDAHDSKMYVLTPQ
Procedure: as §1, §2

β-D-glucosidase (yeast) = experiment: Glycosidase assay, β-D-glucosidase (yeast); settings: Table 16; % inhibition; concentration not given
Procedure: as §1

α-L-fucosidase (bovine) = target: T8, α-L-fucosidase (bovine) (Bos taurus, UniProt Q2KIM0); experiment: Glycosidase assay, α-L-fucosidase (bovine); settings: Table 16; % inhibition; concentration not given
T8 construct: purchased Sigma-Aldrich
T8 sequence (Q2KIM0 23-468): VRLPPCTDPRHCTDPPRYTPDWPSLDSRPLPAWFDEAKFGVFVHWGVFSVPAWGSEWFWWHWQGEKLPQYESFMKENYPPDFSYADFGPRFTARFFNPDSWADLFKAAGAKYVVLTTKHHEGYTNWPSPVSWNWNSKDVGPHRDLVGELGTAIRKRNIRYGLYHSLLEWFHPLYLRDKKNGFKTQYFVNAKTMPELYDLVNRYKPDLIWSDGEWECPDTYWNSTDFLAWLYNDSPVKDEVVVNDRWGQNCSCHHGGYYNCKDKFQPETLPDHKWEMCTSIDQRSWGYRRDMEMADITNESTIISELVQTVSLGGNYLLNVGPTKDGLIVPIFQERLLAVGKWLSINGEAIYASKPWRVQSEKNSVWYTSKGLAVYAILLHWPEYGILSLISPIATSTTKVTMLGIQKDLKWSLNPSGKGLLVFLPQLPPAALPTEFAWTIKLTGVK
Procedure: as §1

[11] = Table 6, % inhibition, concentration not given (method: 10 mg/ml solution)
[12] = Table 6, concentration not given (method: 10 mg/ml solution)
[13] = Table 9, sugar fractions, 10 mM p-nitrophenyl substrate, concentration given only for sucrose (10 mg/ml)
[14] = Table 16, % inhibition, concentration not given
[15] = Table 16, concentration not given

Row | SMILES | N-acetyl-β-D-gluc (Bovine kidney) [1, 11] [%] | β-glucuronidase bovine liver [2] [%] | amyloglucosidase A. niger [3] [%] | β-D-galactosidase (Bovine) [4, 11] [%] | α-D-mannosidase (Jack bean) [5, 12] [%] | α-D-glucosidase (Rice) (α-D-glucosidase (rice); [11]) [%] | α-D-glucosidase (Bacillus) [6, 11] [%] | α-D-glucosidase (Yeast) (α-D-glucosidase (Yeast); [11]) [%] | β-D-mannosidase Cellulomonas fimi [7] [%] | β-D-glucosidase almond (β-D-glucosidase (almond); [11]) [%] | GP Inhibition (%) (glycogen phosphorylase) | N-acetyl-β-D-gluc Jack bean [8, 11] [%] | Naringinase (P. decumbens) [9, 12] [%] | α-D-galactosidase coffee bean [10] [%] | glycogen phosphorylase inhibition (glycogen phosphorylase) | other results
1 | C[n+]1cc(C(=O)[O-])ccc1O [6OH trig, 6-hydroxytrigonelline] | 12 | 0 | 0 | 8 | 0 | 0 | −36 | 0 | 0 | 0 | 11.9 | −11 | 0 | −16 |  | 
2 | C[n+]1cccc(C(=O)[O-])c1 [trigonellin HCl, trigonelline] | −8 | 0 | 0 | 0 | 0 | 0 | −12 | 0 | 0 | 0 | 6.9 | 0 | 0 | 0 | not greatly inhibitory | 
3 | OC[C@H]1O[C@@](CO)(O[C@H]2O[C@H](CO)[C@@H](O)[C@H](O)[C@H]2O)[C@@H](O)[C@@H]1O [sucrose] |  |  |  |  |  |  |  |  |  |  |  |  |  |  | do not inhibit | N-acetyl-β-D-gluc (Bovine kidney) ([1]; Table 9, sucrose 10 mg/ml): 0 % inhibition; β-D-galactosidase (Bovine) [4, 13]: 0 % inhibition; α-D-glucosidase (Rice) (α-D-glucosidase (rice); [13]): 0 % inhibition; α-D-glucosidase (Bacillus) [6, 13]: −7 % inhibition; α-D-glucosidase (Yeast) (α-D-glucosidase (Yeast); [13]): 0 % inhibition; β-D-glucosidase almond (β-D-glucosidase (almond); [13]): 0 % inhibition; N-acetyl-β-D-gluc Jack bean [8, 13]: 0 % inhibition
4 | OC[C@H]1NCC[C@@H](O)[C@@H]1O [fagomine, Fagomine] |  |  |  |  |  |  |  |  |  |  |  |  |  |  | do not inhibit | 
5 | O=C(O)[C@@H]1CC[C@@H](O)CN1 [drawing 7] |  |  |  |  |  |  |  |  |  |  | 0 |  |  |  |  | 
6 | OC[C@H]1NC[C@@H](O)[C@@H]1O [DAB, 1,4-dideoxy-1,4-imino-D-arabinitol] |  |  |  |  |  |  |  |  |  |  |  |  |  |  |  | N-acetyl-β-D-gluc (Bovine kidney) [1, 14]: −8%; β-D-glucosidase (yeast) (β-D-glucosidase (yeast)): 100%; Amyloglucosidase [3, 15]: 47%; β-D-galactosidase (Bovine) [4, 14]: 100%; α-D-mannosidase (Jack bean) [5, 15]: 3%; α-D-glucosidase (Rice) (α-D-glucosidase (rice); [14]): 100%; α-D-glucosidase (Bacillus) [6, 14]: 93%; α-D-glucosidase (Yeast) (α-D-glucosidase (Yeast); [14]): 100%; α-L-fucosidase (Bovine) (α-L-fucosidase (bovine)): 5%; β-D-mannosidase (C. fimi) [7, 15]: 95%; Naringinase (P. decumbens) [9, 15]: 3%; α-D-galactosidase (Green coffee beans) [10, 15]: 7%
7 | O=C(O)[C@@H]1CC[C@@H](O)CN1 [compound 900439] | 9 | 0 | 0 | 0 | 0 | 0 | 0 | 0 | 0 | 0 |  | 8 | −6 | −6 |  | 
